Source: patent US20140328861A1, “Combination of CRTH2 Antagonist and a Proton Pump Inhibitor for the Treatment of Eosinophilic Esophagitis” (Atopix Therapeutics Limited, priority 2011, published 2014)

System: patients with active eosinophilic esophagitis (esophageal eosinophil load)
Test: 8 week randomized, double-blind, placebo-controlled study in patients with active eosinophilic esophagitis
Type: in vivo, human
Experimental: The study was a randomized, double-blind, placebo-controlled, single-center study of (5-fluoro-2-methyl-3-quinolin-2-ylmethyl-indo-1-yl)-acetic acid (OC000459) for 8 weeks in patients with active (≧20 eos/hpf and symptoms), corticosteroid-dependent, and/or -resistant eosinophilic esophagitis (EoE). The study compared patients taking 100 mg of OC000459 twice daily with patients taking a placebo twice daily. The study consisted of 26 patients with 14 patients taking OC000459 and 12 patients taking the placebo. Pre- and post-treatment disease-activity was assessed clinically, endoscopically, histologically, and via biomarkers. The primary endpoint was the reduction of the esophageal eosinophil load.
5. Free of all medications for EoE (including topical steroids) for at least 2 weeks prior to baseline and free of systemic steroids for at least 90 days before screening. A proton-pump inhibitor is allowed if required for treatment of secondary acid reflux.
After an 8-week treatment of active EoE with OC000459, the total mean eosinophil number decreased from 114.7 to 74.2 eos/hpf, whereas under placebo, no reduction was observed (from 102.8 to 99.4 eos/hpf).
A possible explanation for this is that acid reflux may be responsible for the eosinophilic inflammation in the distal esophagus which is consistent with reports that eosinophilia is reduced by PPIs in some patients with EoE (Molina-Infante et al., 2011). […] It is therefore proposed that the combination of CRTH2 antagonists with PPIs will be effective in the treatment of EoE by blocking both the allergic and acid reflux pathways. Three patients were treated with both OC000459 and esomeprazole, either 20 mg or 40 mg once a day.

Compound: Cc1c(Cc2ccc3ccccc3n2)c2cc(F)ccc2n1CC(=O)O [OC000459, (5-fluoro-2-methyl-3-quinolin-2-ylmethyl-indo-1-yl)-acetic acid]
- effect on eosinophil load, proximal versus distal esophagus (8 weeks, 100 mg twice daily, compared to placebo (FIG. 1)): more pronounced in the proximal upper esophagus than in the distal esophagus
- eosinophilic load in the distal esophagus (patients with EoE, 8 weeks): not
- eosinophilic load in the proximal esophagus (patients with EoE, 8 weeks): reduces eosinophilic load
- total mean eosinophil number, after 8-week treatment (patients with active EoE, 100 mg twice daily, 8 weeks): 74.2 eos/hpf
- total mean eosinophil number, before treatment (patients with active EoE, baseline, 100 mg twice daily group): 114.7 eos/hpf
